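Where inhibition never reached the appropriate level, the endpoint shown equals the highest concentration tested. Otherwise, values were interpolated linearly from a five-concentration, 48-hour dose response in 96-well plates. Abbreviation: GI50, concentration required for 50% inhibition of growth.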 Activity calls are given as the source filed them. Rule as the data show it: active = GI50 up to about 1.1 µM and inactive = higher. Where only a bound is given, the exact number is not on record here.

The values below come from ChEMBL document CHEMBL1201862, “PubChem BioAssay data set” (2004).

Test systems include RPMI-8226; SF-539; NCI-H226; SNB-75; OVCAR-4; DU-145; M14; ACHN; SK-MEL-28; SN12C; A549; OVCAR-5; HOP-92; A498; MDA-MB-435; UO-31; KM12; IGROV-1; COLO 205; 786-0.
What all share (assay): NCI-60 cell line screen, 48 h

In the case of `CCN(CC(=O)O)CC(=O)O`, the GI50 in the assay on RPMI-8226, with SF-539, in the assay on NCI-H226, in the assay with SNB-75, in the assay with OVCAR-4 and with DU-145 was > 100 µM (inactive) throughout. Further, the GI50 in the assay on M14, in the assay with ACHN, in the assay with SK-MEL-28, in the assay on SN12C, in the assay on A549 and with OVCAR-5 was > 100 µM (inactive) throughout. Besides, the GI50 in the assay on HOP-92, in the assay on A498, with MDA-MB-435, with UO-31, in the assay on KM12 and with IGROV-1 was > 100 µM (inactive) throughout. The GI50 in the assay on COLO 205 and in the assay on 786-0 was > 100 µM (inactive) each time.

Turning to `O=C(c1ccc(Cl)cc1)N(Cc1cccnc1)C(=S)N(Cc1cccnc1)C(=O)c1ccc(Cl)cc1`, the GI50 in the assay on RPMI-8226 is 13.2 µM (inactive); in the assay with SF-539 it was 23 µM (inactive); in the assay with NCI-H226, 43.5 µM (inactive); in the assay on SNB-75, 37.1 µM (inactive); in the assay on OVCAR-4, 23.6 µM (inactive); with DU-145, 31.1 µM (inactive). The GI50 was 22.7 µM (inactive) in the assay with M14; 36.1 µM (inactive) with ACHN; 37.8 µM (inactive) with SK-MEL-28; 18.6 µM (inactive) with SN12C; 99.5 µM (inactive) with A549; 36.7 µM (inactive) in the assay on OVCAR-5. Besides, the GI50 with HOP-92 was 34 µM (inactive); in the assay on A498, 30.5 µM (inactive); in the assay on MDA-MB-435, 40.2 µM (inactive); in the assay with UO-31 it was 34.2 µM (inactive); in the assay on KM12, 35.4 µM (inactive); in the assay on COLO 205, 20.5 µM (inactive). Moreover, the GI50 in the assay with 786-0 was 21.1 µM (inactive).

Turning to `C=C1C(=O)OC2/C=C(/CO)C3(O)CC(O)C(C)(CC(OC(=O)/C(C)=C/C)C12)O3` (stereo not drawn), the GI50 with RPMI-8226 was 2.51 µM (inactive); with SF-539, 23.9 µM (inactive); in the assay with NCI-H226 it was 18.5 µM (inactive); with SNB-75 it was 39.2 µM (inactive); in the assay on OVCAR-4, 22.3 µM (inactive); in the assay on DU-145 it was 18.5 µM (inactive). Further, the GI50 in the assay on M14 was 17.7 µM (inactive); in the assay on ACHN, 6.82 µM (inactive); with SK-MEL-28, 7.64 µM (inactive); with SN12C, 15.7 µM (inactive); in the assay with A549, 32.8 µM (inactive); in the assay on OVCAR-5, 21 µM (inactive). In addition, the GI50 with HOP-92 is 9.91 µM (inactive); with A498, 20.9 µM (inactive); with MDA-MB-435 it was 9.42 µM (inactive); in the assay with UO-31, 20.4 µM (inactive); with KM12 it was 20.5 µM (inactive); in the assay with IGROV-1 it was 17.2 µM (inactive). Besides, the results for the GI50 in the assay on COLO 205 and in the assay on 786-0 were 4.73 µM (inactive) and 10.1 µM (inactive), respectively.

As to `CCCCCCCCC/C=C/C=C/C(=O)NCC(=O)NC1C(O)C(O)C(Nc2ncnc3[nH]cnc23)OC1C(O)CO` (stereo not drawn), the GI50 with RPMI-8226 is 0.0018 µM (active); in the assay with SF-539, 0.00448 µM (active); in the assay with NCI-H226, 0.00133 µM (active); in the assay with SNB-75, 0.00125 µM (active); in the assay with OVCAR-4, 0.00115 µM (active); in the assay on DU-145, 0.00388 µM (active). Moreover, the GI50 with M14 was 0.0046 µM (active); in the assay on ACHN it was 0.00953 µM (active); with SK-MEL-28 it was 0.0695 µM (active); in the assay on SN12C, 0.0136 µM (active); with A549 it was 0.00397 µM (active); with OVCAR-5, 0.00174 µM (active). The GI50 with HOP-92 is 0.00468 µM (active); in the assay on A498, 0.00468 µM (active); with MDA-MB-435, 0.0255 µM (active); with UO-31, 0.00196 µM (active); in the assay on KM12 it was 0.00263 µM (active); with IGROV-1 it was 4.88e-05 µM (active). For the same compound, the GI50 is 0.001 µM (active) with COLO 205 and 0.00217 µM (active) with 786-0.

With `O=C1OC(c2ccccc2)=N/C1=C\c1ccc(N(CCCl)CCCl)cc1`, the GI50 with RPMI-8226 was 35.1 µM (inactive); in the assay with SF-539, > 100 µM (inactive); in the assay on NCI-H226, > 100 µM (inactive); in the assay on SNB-75, > 100 µM (inactive); with OVCAR-4 it was > 100 µM (inactive); in the assay with DU-145, > 100 µM (inactive). Also, the GI50 in the assay on M14 is > 100 µM (inactive); in the assay on ACHN it was > 62.5 µM (inactive); in the assay on SK-MEL-28 it was > 100 µM (inactive); with SN12C, > 92 µM (inactive); with A549 it was > 100 µM (inactive); in the assay with OVCAR-5, > 100 µM (inactive). In addition, the GI50 in the assay with HOP-92 is > 52.5 µM (inactive); in the assay with A498 it was > 100 µM (inactive); in the assay on MDA-MB-435, > 100 µM (inactive); in the assay with UO-31 it was > 78.3 µM (inactive); with KM12, > 92.3 µM (inactive); in the assay with IGROV-1, > 100 µM (inactive). Besides, the GI50 in the assay on COLO 205 is > 100 µM (inactive); in the assay on 786-0, > 94 µM (inactive).

For `C=C1CC2(CC(c3ccccc3C)OC(c3ccccc3C)C2)OC1=O` (stereo not drawn), the GI50 was 0.473 µM (active) with RPMI-8226; 1.62 µM (inactive) in the assay on SF-539; 7.78 µM (inactive) with NCI-H226; 3.23 µM (inactive) in the assay on SNB-75; 2.27 µM (inactive) with OVCAR-4; 12.1 µM (inactive) in the assay with DU-145. Besides, the GI50 in the assay on M14 is 1.59 µM (inactive); with ACHN, 2.36 µM (inactive); in the assay with SK-MEL-28 it was 1.82 µM (inactive); in the assay with SN12C, 1.97 µM (inactive); with A549 it was 8.47 µM (inactive); in the assay with OVCAR-5, 13.2 µM (inactive). For the same compound, the GI50 is 1.76 µM (inactive) with HOP-92; 8.99 µM (inactive) in the assay on A498; 1.71 µM (inactive) with MDA-MB-435; 4.08 µM (inactive) in the assay with UO-31; 2.18 µM (inactive) in the assay on KM12; 1.69 µM (inactive) with IGROV-1. The values for the GI50 with COLO 205 and in the assay with 786-0 were 1.9 µM (inactive) and 1.96 µM (inactive), respectively.

On to `NC1CCCCC1.O=C(CP(=O)(O)O)NC(CC(=O)OCc1ccccc1)C(=O)OCc1ccccc1` (stereo not drawn), for which the GI50 in the assay with RPMI-8226 was > 100 µM (inactive); in the assay with SF-539, > 100 µM (inactive); with NCI-H226, > 100 µM (inactive); with SNB-75, 4.1 µM (inactive); with OVCAR-4, > 100 µM (inactive); with DU-145, > 100 µM (inactive). Moreover, the GI50 in the assay on M14, with ACHN, in the assay on SK-MEL-28, with SN12C, in the assay with A549 and with OVCAR-5 was > 100 µM (inactive) throughout. Further, the GI50 in the assay with HOP-92, in the assay on A498, in the assay on MDA-MB-435, in the assay on UO-31, with IGROV-1 and in the assay on COLO 205 was > 100 µM (inactive) each time. Also, the GI50 in the assay with 786-0 is > 100 µM (inactive).

In the case of `COc1cc(Oc2c(C)c(Cl)c(OC)c(Cl)c2OC)c2c(c1Cl)COC2=O`, the GI50 with RPMI-8226 was 3.52 µM (inactive); in the assay with SF-539, 31.5 µM (inactive); in the assay with NCI-H226, 27.9 µM (inactive); with SNB-75, 41.9 µM (inactive); with OVCAR-4 it was 10.8 µM (inactive); in the assay with DU-145, 52.6 µM (inactive). Further, the GI50 was 27.7 µM (inactive) in the assay on M14; 12.9 µM (inactive) with ACHN; 62.2 µM (inactive) in the assay with SK-MEL-28; 17.4 µM (inactive) in the assay with SN12C; 34.4 µM (inactive) with A549; 47.1 µM (inactive) in the assay on OVCAR-5. Also, the GI50 was 54 µM (inactive) in the assay on HOP-92; 49.7 µM (inactive) with A498; 31.3 µM (inactive) in the assay on MDA-MB-435; 10.8 µM (inactive) in the assay with UO-31; 20.9 µM (inactive) in the assay on KM12; 17.6 µM (inactive) with IGROV-1. The GI50 in the assay with COLO 205 was 20.9 µM (inactive); with 786-0 it was 17.1 µM (inactive).

As to `O=C1C2=C(CC3=C(C2)CS(=O)(=O)C3)C(=O)C2=C1CC1=C(C2)CS(=O)(=O)C1`, the GI50 was 28.6 µM (inactive) with RPMI-8226; 36.3 µM (inactive) with SF-539; 24.4 µM (inactive) in the assay on NCI-H226; > 20.9 µM (inactive) in the assay with SNB-75; 10.9 µM (inactive) in the assay on OVCAR-4; 48.2 µM (inactive) in the assay with DU-145. Further, the GI50 with M14 is > 37.7 µM (inactive); in the assay on ACHN it was 36.3 µM (inactive); in the assay with SK-MEL-28, > 43.1 µM (inactive); in the assay on SN12C, 15.3 µM (inactive); in the assay with A549, > 90.2 µM (inactive); in the assay on OVCAR-5, 43.4 µM (inactive). Moreover, the GI50 is > 46.7 µM (inactive) in the assay on HOP-92; 43.7 µM (inactive) in the assay with A498; 9.18 µM (inactive) with MDA-MB-435; 38.1 µM (inactive) in the assay with UO-31; > 19.7 µM (inactive) with KM12; 15.4 µM (inactive) in the assay with IGROV-1. Moreover, the GI50 in the assay on COLO 205 was 13 µM (inactive); with 786-0, 25.9 µM (inactive).

On to `CC1=C(C(=O)c2ccccc2)C23C(=O)N(c4ccccc4)C(=O)C2=C(O)C=CC3(O)N1` (stereo not drawn), for which the GI50 with RPMI-8226 was 29.8 µM (inactive); in the assay with SF-539, 47.9 µM (inactive); in the assay with NCI-H226, 35 µM (inactive); in the assay with SNB-75, 24.2 µM (inactive); in the assay with OVCAR-4, 17.8 µM (inactive); in the assay on DU-145 it was 44.1 µM (inactive). The GI50 with M14 is 40.2 µM (inactive); with ACHN, 15.9 µM (inactive); in the assay with SK-MEL-28 it was 17.3 µM (inactive); in the assay with SN12C it was 30.3 µM (inactive); with A549, 50.2 µM (inactive); in the assay with OVCAR-5, 47.2 µM (inactive). Also, the GI50 in the assay with HOP-92 is 17.5 µM (inactive); in the assay on A498, 40 µM (inactive); in the assay with MDA-MB-435 it was 40 µM (inactive); in the assay on UO-31, 12.2 µM (inactive); in the assay with KM12, 23.9 µM (inactive); with IGROV-1 it was 25.6 µM (inactive). Moreover, the GI50 in the assay on COLO 205 is 50.8 µM (inactive); with 786-0 it was 35 µM (inactive).
